Target: T1, beta amyloid (Aβ42) (Homo sapiens, UniProt P05067)
T1 construct: gene APP; synthetic peptide of 42 amino acids β-amyloid Aβ42 (monomers)
Assay: ITC with Aβ[…] monomers (supported by fluorescence saturation binding with monomers and fibrils)

T1 sequence (P05067 672-713 limits assumed): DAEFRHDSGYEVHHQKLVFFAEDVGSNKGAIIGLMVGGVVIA

- Kd: 4.08 ± 0.2 µM
Structure (SMILES): CC1=C(c2nc3ccccc3s2)C(C)=[N+]2C1=C(c1ccc(OCC(=O)NCCCOc3c(I)cc(Cl)c4cccnc34)cc1)c1c(C)cc(C)n1[B-]2(F)F [BDP-CLQ, 2-(4-(2-(benzo[d]thiazol-2-yl)-5,5-difluoro-1,3,7,9-tetramethyl-5H-5λ^4,6λ^4-dipyrrolo [1,2-c:2′,1′-f][1,3,2]diazaborinin-10-yl)phenoxy)-N-(3-((5-chloro-7-iodoquinolin-8-yl)-oxy)propyl)acetamide]

Source: publication PMC12732972, “Bifunctional BODIPY-Clioquinol Copper Chelator with Multiple Anti-AD Properties” (International Journal of Molecular Sciences, 2025)
